Measurements reported in US12186295B2, “Ophthalmic compositions containing a nitric oxide releasing prostamide” (NICOX S.A., priority 2018, dated 2025).

Experiments:
[1] = Solubility in water and aqueous solutions; assay type: physicochemical; settings: aqueous solution at pH 6.0 containing 0.5% (w/w) of macrogol 15-hydroxystearate (Kolliphor® HS15)
[2] = Impagnatiello et al., cited from earlier work

solubility [1]: 0.070 % (w/w)
SMILES: CCNC(=O)CCC/C=C\C[C@@H]1[C@@H](/C=C/[C@H](CCc2ccccc2)OC(=O)CCCCCO[N+](=O)[O-])[C@H](O)C[C@@H]1O [NCX 470, Hexanoic acid, 6-(nitrooxy)-, (1S,2E)-3-[(1R,2R,3S,5R)-2-[(2Z)-7-(ethylamino)-7-oxo-2-hepten-1-yl]-3,5-dihydroxycyclopentyl]-1-(2-phenylethyl)-2-propen-1-yl ester]
IOP-lowering efficacy versus equimolar doses of bimatoprost ([2]; British Journal of Pharmacology (2018), vehicle 0.25% Tween 80, 0.02% BAK, 2% glycerine, 0.1% EDTA): greater IOP-lowering efficacy | intra ocular pressure (IOP)-lowering agent ([2]; Invest Ophthalmol Vis Sci. 2015): effective
